In US7799809B2, “Carboxamide compounds and their use as calpain inhibitors” (Abbott GmbH & Co. KG, priority 2006, dated 2010):

Key:
Type in all cases: biochemical
cathepsin S = target: T1, cathepsin S (Homo sapiens, UniProt P25774); test: Cathepsin S enzyme inhibition in vitro (kinetic fluorescence assay); conditions: recombinant human cathepsin S vs calpain I
T1 construct: purchased Calbiochem 219343; host or cells: E. coli
In short: (§1)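 Cathepsin B (0.25 nM, human liver) with 100 μM Z-Phe-Arg-AMC; L (1 nM, human liver) with 2 μM Z-Phe-Arg-AMC; S (0.5 nM, recombinant) with 20 μM Z-Val-Val-Arg-AMC. pH 6.0 MES buffer, 2.5 mM L-cysteine, room temperature. Kinetic fluorescence (ex 390/em 460 nm); apparent Ki from IC50 by Cheng-Prusoff.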

cathepsin K = target: T2, cathepsin K (Homo sapiens, UniProt P43235); test: Cathepsin K enzyme inhibition in vitro (kinetic fluorescence assay); conditions: cathepsin K activated from recombinant human procathepsin K vs calpain I
T2 construct: purchased Calbiochem 342001; host or cells: E. coli
T2 sequence (P43235 115-329): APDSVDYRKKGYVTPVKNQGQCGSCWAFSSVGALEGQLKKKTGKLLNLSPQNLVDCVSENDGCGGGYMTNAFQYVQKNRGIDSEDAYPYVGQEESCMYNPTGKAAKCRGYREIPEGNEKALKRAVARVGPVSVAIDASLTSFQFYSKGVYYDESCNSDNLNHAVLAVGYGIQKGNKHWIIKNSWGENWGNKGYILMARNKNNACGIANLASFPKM

cathepsin B = target: T3, cathepsin B (Homo sapiens, UniProt P07858); test: Cathepsin B enzyme inhibition in vitro (kinetic fluorescence assay); conditions: cathepsin B isolated from human liver vs calpain I
T3 construct: cathepsin B—isolated from human liver (Calbiochem #219362); purchased Calbiochem 219362; host or cells: human liver (tissue-derived)
In short: as §1

cathepsin L = target: T4, cathepsin L (Homo sapiens, UniProt P07711); test: Cathepsin L enzyme inhibition in vitro (kinetic fluorescence assay); conditions: cathepsin L isolated from human liver vs calpain I
T4 construct: cathepsin L—isolated from human liver (Calbiochem #219402); purchased Calbiochem 219402; host or cells: human liver (tissue-derived)
In short: as §1

T4 sequence (P07711 114-333): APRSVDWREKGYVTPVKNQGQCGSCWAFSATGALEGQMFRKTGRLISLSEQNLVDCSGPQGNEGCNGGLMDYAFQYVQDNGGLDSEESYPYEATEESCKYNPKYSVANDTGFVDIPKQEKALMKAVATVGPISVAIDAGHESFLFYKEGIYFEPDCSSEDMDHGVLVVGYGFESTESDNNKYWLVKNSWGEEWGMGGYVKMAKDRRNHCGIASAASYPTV
T1 sequence (P25774 115-331): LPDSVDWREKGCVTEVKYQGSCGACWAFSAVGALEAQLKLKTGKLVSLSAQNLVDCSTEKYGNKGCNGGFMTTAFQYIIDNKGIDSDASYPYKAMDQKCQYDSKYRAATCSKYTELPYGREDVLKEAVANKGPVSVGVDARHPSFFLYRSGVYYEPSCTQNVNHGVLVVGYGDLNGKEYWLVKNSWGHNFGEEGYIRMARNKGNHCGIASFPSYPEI

SMILES	Sel cat. S: Ki(cathepsin S)/Ki(calpain) ratio (cathepsin S)	Sel cat. K: Ki(cathepsin K)/Ki(calpain) ratio (cathepsin K)	Sel cat. B: Ki(cathepsin B)/Ki(calpain) ratio (cathepsin B)	Sel cat. L: Ki(cathepsin L)/Ki(calpain) ratio (cathepsin L)
NC(=O)C(=O)C(Cc1ccccc1)NC(=O)c1cccnc1-n1ccc(-c2ccccc2)n1 (stereo not drawn) [Example 5, N-(3-Amino-1-benzyl-2,3-dioxopropyl)-2-(3-phenyl-1H-pyrazol-1-yl)nicotinamide]	++ (++ means a Ki(cathepsin S)/Ki(calpain) ratio of ≧100)	+ (+ means 10≦Ki(cathepsin K)/Ki(calpain)<30)	+ (+ means 10≦Ki(cathepsin B)/Ki(calpain)<30)	++ (++ means a Ki(cathepsin L)/Ki(calpain) ratio of ≧50)
NC(=O)C(=O)C(Cc1ccccc1)NC(=O)c1cccnc1-n1ccc(-c2ccccc2F)n1 (stereo not drawn) [Example 76, N-(3-Amino-1-benzyl-2,3-dioxopropyl)-2-[3-(2-fluorophenyl)-1H-pyrazol-1-yl]nicotinamide]	++ (++ means a Ki(cathepsin S)/Ki(calpain) ratio of ≧100)	+ (+ means 10≦Ki(cathepsin K)/Ki(calpain)<30)	++ (++ means a Ki(cathepsin B)/Ki(calpain) ratio of ≧30)	++ (++ means a Ki(cathepsin L)/Ki(calpain) ratio of ≧50)
NC(=O)C(=O)C(Cc1ccccc1)NC(=O)c1cccnc1-n1cc2c(n1)-c1ccccc1SC2 (stereo not drawn) [Example 173, N-[3-Amino-2,3-dioxo-1-(phenylmethyl)propyl]-2-thiochromeno[4,3-c]pyrazol-2(4H)-ylpyridine-3-carboxamide]	++ (++ means a Ki(cathepsin S)/Ki(calpain) ratio of ≧100)	+ (+ means 10≦Ki(cathepsin K)/Ki(calpain)<30)	+ (+ means 10≦Ki(cathepsin B)/Ki(calpain)<30)	++ (++ means a Ki(cathepsin L)/Ki(calpain) ratio of ≧50)
NC(=O)C(=O)C(Cc1ccccc1)NC(=O)c1cccnc1-n1ccc(-c2ccc3c(c2)OC(F)(F)O3)n1 (stereo not drawn) [Example 118, N-[3-Amino-2,3-dioxo-1-(phenylmethyl)propyl]-2-[3-(2,2-difluoro-1,3-benzodioxol-5-yl)-1H-pyrazol-1-yl]pyridine-3-carboxamide]	++ (++ means a Ki(cathepsin S)/Ki(calpain) ratio of ≧100)	+ (+ means 10≦Ki(cathepsin K)/Ki(calpain)<30)	++ (++ means a Ki(cathepsin B)/Ki(calpain) ratio of ≧30)	++ (++ means a Ki(cathepsin L)/Ki(calpain) ratio of ≧50)
NC(=O)C(=O)C(Cc1ccccc1)NC(=O)c1cccnc1-n1ccc(-c2cccc(Cl)c2Cl)n1 (stereo not drawn) [Example 115, N-[3-Amino-2,3-dioxo-1-(phenylmethyl)propyl]-2-[3-(2,3-dichlorophenyl)-1H-pyrazol-1-yl]pyridine-3-carboxamide]	++ (++ means a Ki(cathepsin S)/Ki(calpain) ratio of ≧100)	++ (++ means a Ki(cathepsin K)/Ki(calpain) ratio of ≧30)	++ (++ means a Ki(cathepsin B)/Ki(calpain) ratio of ≧30)	++ (++ means a Ki(cathepsin L)/Ki(calpain) ratio of ≧50)
NC(=O)C(=O)C(Cc1ccccc1)NC(=O)c1cccnc1-n1ccc(-c2cccc3cccnc23)n1 (stereo not drawn) [Example 160, N-[3-amino-2,3-dioxo-1-(phenylmethyl)propyl]-2-(3-quinolin-8-yl-1H-pyrazol-1-yl)pyridine-3-carboxamide]	++ (++ means a Ki(cathepsin S)/Ki(calpain) ratio of ≧100)	++ (++ means a Ki(cathepsin K)/Ki(calpain) ratio of ≧30)	++ (++ means a Ki(cathepsin B)/Ki(calpain) ratio of ≧30)	++ (++ means a Ki(cathepsin L)/Ki(calpain) ratio of ≧50)
